In patent publication US10689414B2 (Agios Pharmaceuticals, Inc., priority 2013, dated 2020):

Tests used:
[1] = biological target: IDH1 R132H (Homo sapiens (Human), UniProt O75874, R132H); experiment: In vitro NADPH depletion assay for IDH1m R132H inhibitors; type: biochemical; conditions: IDH1 R132H enzyme, read-out: IDH R132H IC50
Experimental: (§1) A test compound is prepared as 10 mM stock in DMSO and diluted to 50× final concentration in DMSO, for a 50 μl reaction mixture. IDH enzyme activity converting alpha-ketoglutarate to 2-hydroxyglutaric acid is measured using a NADPH depletion assay. In the assay the remaining cofactor is measured at the end of the reaction with the addition of a catalytic excess of diaphorase and resazurin, to generate a fluorescent signal in proportion to the amount of NADPH remaining. […] The reaction is started with the addition of 10 μl of Substrate Mix ([…], 5 mM alpha-ketoglutarate, in Assay Buffer) and the mixture is incubated for 90 minutes at room temperature.

[2] = biological target: IDH1 R132C (Homo sapiens (Human), UniProt O75874, R132C); experiment: In vitro NADPH depletion assay for IDH1m R132C inhibitors; type: biochemical; conditions: IDH1 R132C enzyme, read-out: IDH R132C IC50
Experimental: as §1
The concentration of NADPH and alpha-ketoglutarate in the Substrate Buffer is 20 μM and 1 mM, respectively.

[3] = tested on: U87MG cells; experiment: Cellular assay, inhibition of 2-HG production in U87MG cells; type: cell-based
How it was run: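 HT1080 or U87MG cells (U87MG kept with 500 ug/mL G418) seeded at 5000 cells/well and treated with compound at 0.2% final DMSO. Incubated 48 h at 37 °C. 2-HG inhibition determined by LC-MS. Viability read by CellTiter-Glo luminescence at 72 h post-dose.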

[4] = tested on: HT1080 cells; experiment: Cellular assay, inhibition of 2-HG production in HT1080 cells; type: cell-based; conditions: Homo sapiens, HT-1080, 48 h
Experimental: Cells (HT1080 or U87MG) are grown in T125 flasks in DMEM containing 10% FBS, 1× penicillin/streptomycin and 500 ug/mL G418 (present in U87MG cells only). They are harvested by trypsin and seeded into 96 well white bottom plates at a density of 5000 cell/well in 100 ul/well in DMEM with 10% FBS. […] Cells are incubated overnight at 37° C. in 5% CO2. The next day test compounds are made up at 2× the final concentration and 100 ul are added to each cell well. The final concentration of DMSO is 0.2% and the DMSO control wells are plated in row G. The plates are then placed in the incubator for 48 hours. […] The cell plate is placed back in the incubator for another 24 hours. At 72 hours post compound addition, 10 mL/plate of Promega Cell Titer Glo reagent is thawed and mixed. The cell plate is removed from the incubator and allowed to equilibrate to room temperature. Then 100 ul of Promega Cell Titer Glo reagent is added to each well of media. The cell plate is then placed on an orbital shaker for 10 minutes and then allowed to sit at room temperature for 20 minutes. The plate is then read for luminescence with an integration time of 500 ms.

[5] = inhibition of 2-HG production, U87MG cells, 48 hours

Sequence of IDH1 R132H (O75874 whole entry R132H): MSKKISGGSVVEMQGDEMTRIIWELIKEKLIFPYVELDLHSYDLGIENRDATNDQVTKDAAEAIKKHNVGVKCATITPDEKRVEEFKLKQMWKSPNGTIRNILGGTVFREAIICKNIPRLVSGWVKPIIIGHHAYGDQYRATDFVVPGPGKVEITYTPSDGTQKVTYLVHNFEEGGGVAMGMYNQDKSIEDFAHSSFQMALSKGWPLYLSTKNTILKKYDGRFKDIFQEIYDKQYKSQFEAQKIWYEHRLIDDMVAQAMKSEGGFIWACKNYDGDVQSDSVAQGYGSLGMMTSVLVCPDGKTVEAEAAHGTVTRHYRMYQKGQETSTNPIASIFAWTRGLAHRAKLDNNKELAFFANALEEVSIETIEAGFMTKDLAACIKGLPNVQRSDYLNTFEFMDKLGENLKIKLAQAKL
Sequence of IDH1 R132C (O75874 whole entry R132C): as the sequence (O75874 whole entry R132H) above, with H132C counted along it

Row | Compound | IC50 [1] | IC50 [2] | IC50 [3, 5] | IC50 [4] | IC50 ([3]; Homo sapiens, U-87 MG, 48 h)
1 | (S)-tert-butyl 3-(((S)-1-(2-chlorophenyl)-2-((3,3-difluorocyclobutyl) amino)-2-oxoethyl)(3,5-difluorophenyl)carbamoyl)-5-oxopiperazine-1-carboxylate [Compound 97] | < 100 nM | < 100 nM | < 100 nM | – | –
2 | (S)—N—((S)-1-(2-Chlorophenyl)-2-((4,4-difluorocyclohexyl)amino)-2-oxoethyl)-3-(4-cyano-pyridin-2-yl)-N-(3-fluorophenyl)-2-oxooxazolidine-4-carboxamide [Compound 78] | < 100 nM | < 100 nM | < 100 nM | – | –
3 | Cc1cccnc1N1C(=O)CC[C@H]1C(=O)N(c1cccc(F)c1)[C@H](C(=O)NC1CC(F)(F)C1)c1ccccc1Cl [Compound 15] | – | – | – | 100 to 500 nM | 100 to 500 nM
4 | N#Cc1ccnc(N2C(=O)CC[C@H]2C(=O)N(c2cccc(F)c2)[C@H](C(=O)NC2CC(F)(F)C2)c2c(Cl)cccc2Cl)c1 (single isomer, unassigned) [Compound 63] | – | – | – | < 100 nM | < 100 nM
5 | (S)—N—((S)-1-(2-Chlorophenyl)-2-((3,3-difluorocyclobutyl)amino)-2-oxoethyl)-1-(4-cyanopyrimidin-2-yl)-N-(3-fluoro-5-(methylsulfonyl)phenyl)-5-oxopyrrolidine-2-carboxamide [Compound 109] | < 100 nM | < 100 nM | 100 to 500 nM | – | –
6 | (S)—N—((S)-1-(2-Chlorophenyl)-2-((3,3-difluorocyclobutyl)amino)-2-oxoethyl)-1-(4-cyanopyridin-2-yl)-N-(1H-indazol-6-yl)-5-oxopyrrolidine-2-carboxamide [Compound 205] | < 100 nM | < 100 nM | < 100 nM | – | –
7 | (S)—N—((S)-1-(2-Chlorophenyl)-2-(3,3-difluorocyclobutylamino)-2-oxoethyl)-N-(3-cyano-5-fluorophenyl)-3-(3-cyanophenyl)-2-oxooxazolidine-4-carboxamide [Compound 134] | < 100 nM | < 100 nM | < 100 nM | – | –
8 | (S)—N—((S)-1-(2-Chlorophenyl)-2-(3,3-difluorocyclobutylamino)-2-oxoethyl)-1-(3-cyano-phenyl)-N-(1H-indazol-7-yl)-5-oxopyrrolidine-2-carboxamide [Compound 186] | < 100 nM | < 100 nM | < 100 nM | – | –
9 | CC(C)(C)c1cccc(N(C(=O)[C@@H]2CCC(=O)N2c2nccc(C#N)n2)[C@H](C(=O)NC2CC(F)(F)C2)c2ccccc2Cl)c1 [Compound 165, (S)—N-(3-(tert-Butyl)phenyl)-N—((S)-1-(2-chlorophenyl)-2-((3,3-difluorocyclobutyl)amino)-2-oxoethyl)-1-(4-cyanopyrimidin-2-yl)-5-oxopyrrolidine-2-carboxamide] | < 100 nM | – | – | – | < 100 nM
10 | N#Cc1cccc(N2C(=O)OC[C@H]2C(=O)N(c2cccc3cn[nH]c23)[C@H](C(=O)NC2CCC(F)(F)CC2)c2ccccc2Cl)c1 [Compound 142, (S)—N—((S)-1-(2-Chlorophenyl)-2-(4,4-difluorocyclohexylamino)-2-oxoethyl)-3-(3-cyanophenyl)-N-(1H-indazol-7-yl)-2-oxooxazolidine-4-carboxamide] | < 100 nM | < 100 nM | < 100 nM | – | –
11 | O=C(NC1CC(F)(F)C1)[C@H](c1ccccc1Cl)N(C(=O)[C@@H]1CCC(=O)N1c1cc(C(F)(F)F)ccn1)c1cccc(F)c1 [Compound 40] | – | – | – | 100 to 500 nM | 100 to 500 nM
12 | N#Cc1cc(C#N)cc(N(C(=O)[C@@H]2CCC(=O)N2c2cc(C#N)ccn2)[C@H](C(=O)NC2CC(F)(F)C2)c2ccccc2Cl)c1 [Compound 153, (S)—N—((S)-1-(2-Chlorophenyl)-2-((3,3-difluorocyclobutyl)amino)-2-oxoethyl)-1-(4-cyanopyridin-2-yl)-N-(3,5-dicyanophenyl)-5-oxopyrrolidine-2-carboxamide] | – | – | – | – | < 100 nM

The next lines start with the values.

Row | IC50 [1] | IC50 [2] | IC50 [3, 5] | IC50 [4] | IC50 ([3]; Homo sapiens, U-87 MG, 48 h) | Compound
13 | < 100 nM | < 100 nM | < 100 nM | – | – | (2S)—N-(1-(2-Chlorophenyl)-2-((3,3-difluorocyclobutyl)amino)-2-oxoethyl)-1-(4-cyanopyridin-2-yl)-N-(3-fluoro-5-(methylsulfonyl)phenyl)-5-oxopyrrolidine-2-carboxamide [Compound 110]
14 | – | – | – | 100 to 500 nM | 100 to 500 nM | O=C(NC1CC(F)C1)[C@H](c1ccccc1Cl)N(C(=O)[C@@H]1CCC(=O)N1c1ncccn1)c1cccc(F)c1 (stereo partly shown) [Compound 49]
15 | 100 to 500 nM | 100 to 500 nM | – | – | – | O=C(NC1CC(F)(F)C1)[C@H](c1ccccc1Cl)N(C(=O)[C@@H]1CCC(=O)N1c1ccncn1)c1cccc(F)c1 [Compound 22]
16 | – | – | – | < 100 nM | – | Cc1cccc(N2C(=O)CC[C@H]2C(=O)N(c2cccc(F)c2)[C@H](C(=O)NC2CC(F)(F)C2)c2ccccc2Cl)n1 [Compound 28]
17 | < 100 nM | < 100 nM | < 100 nM | – | – | (2S)—N-(1-(2-Chlorophenyl)-2-((4,4-difluorocyclohexyl)amino)-2-oxoethyl)-1-(4-cyanopyridin-2-yl)-N-(3-fluoro-5-(methylsulfonyl)phenyl)-5-oxopyrrolidine-2-carboxamide [Compound 105]
18 | – | – | – | 100 to 500 nM | < 100 nM | N#Cc1cccc(N(C(=O)[C@@H]2CCC(=O)N2c2nccc(C#N)n2)[C@H](C(=O)NC2CCC(F)(F)CC2)c2ccccc2Cl)c1 [Compound 178, (S)—N—((S)-1-(2-Chlorophenyl)-2-((4,4-difluorocyclohexyl)amino)-2-oxoethyl)-N-(3-cyanophenyl)-1-(4-cyanopyrimidin-2-yl)-5-oxopyrrolidine-2-carboxamide]
19 | < 100 nM | < 100 nM | – | – | < 100 nM | N#Cc1ccnc(N2C(=O)CC[C@H]2C(=O)N(c2cc(F)cc(F)c2)[C@H](C(=O)NC2CC(F)(F)C2)c2ccccc2F)c1 [Compound 208, (S)-1-(4-Cyanopyridin-2-yl)-N—((S)-2-(3,3-difluorocyclobutylamino)-1-(2-fluorphenyl)-2-oxoethyl)-N-(3,5-difluorophenyl)-5-oxopyrrolidine-2-carboxamide]
20 | – | – | – | 100 to 500 nM | 100 to 500 nM | O=C(NC1CC(F)(F)C1)[C@H](c1ccccc1Cl)N(C(=O)[C@@H]1COCC(=O)N1c1ncccn1)c1cccc(F)c1 [Compound 45]
21 | < 100 nM | < 100 nM | – | – | 100 to 500 nM | O=C(NC1CC(F)(F)C1)[C@H](c1ccccc1Cl)N(C(=O)[C@@H]1CCC(=O)N1c1ccccn1)c1cccc(F)c1 [Compound 5]
22 | – | – | – | – | < 100 nM | CC(C)(O)c1cc(F)cc(N(C(=O)[C@@H]2CCOC(=O)N2c2cc(C#N)ccn2)[C@H](C(=O)NC2CC(F)(F)C2)c2ccccc2Cl)c1 [Compound 146, (S)—N—((S)-1-(2-Chlorophenyl)-2-(3,3-difluorocyclobutylamino)-2-oxoethyl)-3-(4-cyanopyridin-2-yl)-N-(3-fluoro-5-(2-hydroxypropan-2-yl)phenyl)-2-oxo-1,3-oxazinane-4-carboxamide]
23 | – | – | – | – | < 100 nM | CC(C)(O)c1cc(F)cc(N(C(=O)[C@@H]2COC(=O)N2c2cc(C#N)ccn2)C(C(=O)NC2CC(F)(F)C2)c2ccccc2Cl)c1 (mixture of isomers) [Compound 145, (4S)—N-(1-(2-Chlorophenyl)-2-(3,3-difluorocyclobutylamino)-2-oxoethyl)-3-(4-cyanopyridin-2-yl)-N-(3-fluoro-5-(2-hydroxypropan-2-yl)phenyl)-2-oxooxazolidine-4-carboxamide]
24 | – | – | – | – | < 100 nM | N#Cc1cnc(N2C(=O)CC[C@H]2C(=O)N(c2cc(F)cc(F)c2)[C@H](C(=O)NC2CC(F)(F)C2)c2ccccc2Cl)o1 [Compound 162, (S)—N—((S)-1-(2-chlorophenyl)-2-((3,3-difluorocyclobutyl)amino)-2-oxoethyl)-1-(5-cyanooxa-zol-2-yl)-N-(3,5-difluorophenyl)-5-oxopyrrolidine-2-carboxamide]
25 | – | – | – | – | 100 to 500 nM | N#Cc1ccnc(N2C(=O)[C@@H](O)C[C@H]2C(=O)N(c2cccc(F)c2)[C@H](C(=O)NC2CC(F)(F)C2)c2ccccc2Cl)n1 [Compound 119, (2S,4S)—N—((S)-1-(2-Chlorophenyl)-2-(3,3-difluorocyclobutylamino)-2-oxoethyl)-1-(4-cyanopyrimidin-2-yl)-N-(3-fluorophenyl)-4-hydroxy-5-oxopyrrolidine-2-carboxamide]
